We go through one molecule from ChEMBL document CHEMBL4402592, “Targeting Endoplasmic Reticulum α-Glucosidase I with a Single-Dose Iminosugar Treatment Protects against Lethal Influenza and Dengue Virus Infections” (J Med Chem, 2020).

The test system of assay [1] is Influenza A virus. Description: Antiviral activity against Influenza A virus (A/Texas/36/1991(H1N1)) infected in BALB/c mouse assessed as increase in animal survival rate at >250 mg/kg, po administered via gavage as single dose at 8 hrs post-infection. It is filed as functional, organism-based.
Assay [2] relates to Influenza A virus. The experiment in a line: Antiviral activity against Influenza A virus (A/Texas/36/1991(H1N1)) infected in BALB/c mouse assessed as animal survival at 750 mg/kg, po administered via gavage as single dose at 24 hrs post infection (reference value: 0%). Type of assay: functional.
The subject of assay [3] is Mus musculus. Description: In vivo inhibition of ERGlu1 in BALB/c mouse assessed as increase in tri-glucosylated FOS level in serum at 750 mg/kg, po administered via gavage as single dose and measured after 16 hrs by NP-HPLC analysis. Type of assay: functional, organism-based.
Assay [4] has as its system Mus musculus. The experiment in a line: In vivo inhibition of ERGlu1 in BALB/c mouse assessed as increase in mono-glucosylated FOS level in serum at 100 to 1000 mg/kg, po administered via gavage at 8 hrs post-infection and measured at 8 hrs post-dose by NP-HPLC analysis. It is filed as functional, organism-based.
Another assay has as its system Cynomolgus monkey. The experiment in a line: In vivo inhibition of ERGlu1 in cynomolgus monkey assessed as increase in tri-glucosylated FOS at level in serum 128 to 258 mg/kg, po administered via gavage as single dose measured after 8 to 72 hrs by NP-HPLC analysis. Type of assay: functional, organism-based. The conditions noted are these: Macaca fascicularis.
The test system of assay [5] is Influenza A virus. The experiment in a line: Antiviral activity against Influenza A virus (A/Texas/36/1991(H1N1)) infected in BALB/c mouse assessed as median death time at 750 mg/kg, po administered via gavage as single dose at 24 hrs post infection (reference value: 8.5 days). It is filed as functional.
The subject of assay [6] is Influenza A virus. The experiment in a line: Antiviral activity against Influenza A virus (A/Texas/36/1991(H1N1)) infected in BALB/c mouse assessed as increase in animal survival rate at 100 mg/kg, po administered via gavage starting at 8 hrs post-infection and continuing TID for 5 days. It is filed as functional, organism-based.
Assay [7] has as its system dengue virus type 2. Description: Antiviral activity against Dengue virus 2 S221 infected in DENV antibody dependent enhancement AG129 mouse model assessed as reduction in IFN-gamma level at 750 mg/kg, po administered via gavage as single dose at 36 hrs post infection measured at 72 hrs post-infection by electrochemiluminescence based method. It is filed as functional, organism-based.

The subject of assay [8] is Mus musculus. The experiment in a line: In vivo inhibition of ERGlu2 in BALB/c mouse assessed as increase in di-glucosylated FOS level in serum at 100 mg/kg, po administered via gavage starting at 8 hrs post-infection and continuing tid for 5 days and measured at 8 hrs post-final dose by NP-HPLC analysis. It is filed as functional, organism-based.
In assay [9] the test system is dengue virus type 2. Description: Antiviral activity against Dengue virus 2 S221 infected in DENV antibody dependent enhancement AG129 mouse model assessed as animal survival at 750 mg/kg, po administered via gavage as two doses at 24 and 40 hrs post infection (reference value: 4%). Type of assay: functional.
Assay [10] has as its system Mus musculus. Description: In vivo inhibition of ERGlu1 in BALB/c mouse assessed as increase in tri-glucosylated FOS level in lung at >250 mg/kg, po administered via gavage as single dose at 8 hrs post-infection and measured at 8 hrs post dose by NP-HPLC analysis. It is filed as functional, organism-based.
Assay [11] relates to Influenza A virus. The experiment in a line: Antiviral activity against Influenza A virus (A/Texas/36/1991(H1N1)) infected in BALB/c mouse assessed as animal survival at 500 mg/kg, po administered via gavage as single dose at 24 hrs post infection (reference value: 0%). Type of assay: functional.
In assay [12] the test system is dengue virus type 2. The experiment in a line: Antiviral activity against Dengue virus 2 S221 infected in DENV antibody dependent enhancement AG129 mouse model assessed as reduction in IL10 level at 750 mg/kg, po administered via gavage as single dose at 36 hrs post infection measured at 60 hrs post-infection by electrochemiluminescence based method. It is filed as functional, organism-based.

Assay [13] deals with dengue virus type 2. The experiment in a line: Antiviral activity against Dengue virus 2 S221 infected in DENV antibody dependent enhancement AG129 mouse model assessed as reduction in IFN-gamma level at 750 mg/kg, po administered via gavage as two doses at 36 hrs and 52 hrs post infection measured at 72 hrs post-infection by electrochemiluminescence based method. It is filed as functional, organism-based.

Assay [14] concerns dengue virus type 2. Description: Antiviral activity against Dengue virus 2 S221 infected in DENV antibody dependent enhancement AG129 mouse model assessed as reduction in viremia by measuring foci of BHK21 cells containing DENV E at 750 mg/kg, po administered via gavage as two doses at 36 hrs and 52 hrs post infection measured after titration of compound treated infected animal serum with BHK21 cells by TrueBlue staining based focus forming assay. It is filed as functional, organism-based.

The test system of assay [15] is dengue virus type 2. Description: Antiviral activity against Dengue virus 2 S221 infected in DENV antibody dependent enhancement AG129 mouse model assessed as reduction in IL-12/IL-23p40 level at 750 mg/kg, po administered via gavage as single dose at 36 hrs post infection measured at 72 hrs post-infection by electrochemiluminescence based method. Type of assay: functional, organism-based.

The test system of assay [16] is Influenza A virus. The experiment in a line: Antiviral activity against Influenza A virus (A/Texas/36/1991(H1N1)) infected in BALB/c mouse assessed as animal survival at 500 mg/kg, po administered via gavage as three doses at 8, 32 and 56 hrs post infection (reference value: 0%). Type of assay: functional.
Assay [17] relates to dengue virus type 2. The experiment in a line: Antiviral activity against Dengue virus 2 S221 infected in DENV antibody dependent enhancement AG129 mouse model assessed as reduction in IL-10 level at 750 mg/kg, po administered via gavage as two doses at 36 hrs and 52 hrs post infection measured at 72 hrs post-infection by electrochemiluminescence based method. Type of assay: functional, organism-based.

Assay [18] has as its system dengue virus type 2. The experiment in a line: Antiviral activity against Dengue virus 2 S221 infected in DENV antibody dependent enhancement AG129 mouse model assessed as reduction in KC-GRO level at 750 mg/kg, po administered via gavage as two doses at 36 hrs and 52 hrs post infection measured at 60 hrs post-infection by electrochemiluminescence based method. Type of assay: functional, organism-based.

For assay [19], the system named is Influenza A virus. Description: Antiviral activity against Influenza A virus (A/Texas/36/1991(H1N1)) infected in BALB/c mouse assessed as animal survival at 750 mg/kg, po administered via gavage as three doses at 8, 32 and 56 hrs post infection (reference value: 0%). It is filed as functional.
The test system of assay [20] is dengue virus type 2. The experiment in a line: Antiviral activity against Dengue virus 2 S221 infected in DENV antibody dependent enhancement AG129 mouse model assessed as reduction in TNF-alpha level at 750 mg/kg, po administered via gavage as single dose at 36 hrs post infection measured at 52 hrs post-infection by electrochemiluminescence based method. Type of assay: functional, organism-based.

Assay [21] relates to dengue virus type 2. The experiment in a line: Antiviral activity against Dengue virus 2 S221 infected in DENV antibody dependent enhancement AG129 mouse model assessed as reduction in viremia at 750 mg/kg, po administered via gavage as two doses at 36 hrs and 52 hrs post infection by qRT-PCR analysis. It is filed as functional, organism-based.
In assay [22] the test system is dengue virus type 2. The experiment in a line: Antiviral activity against Dengue virus 2 S221 infected in DENV antibody dependent enhancement AG129 mouse model assessed as reduction in IL-10 level at 750 mg/kg, po administered via gavage as single dose at 36 hrs post infection measured at 72 hrs post-infection by electrochemiluminescence based method. It is filed as functional, organism-based.

The test system of assay [23] is Influenza A virus. The experiment in a line: Antiviral activity against Influenza A virus (A/Texas/36/1991(H1N1)) infected in BALB/c mouse assessed as animal survival at 500 mg/kg, po administered via gavage as two doses at 8 and 32 hrs post infection (reference value: 0%). It is filed as functional.

Calls of active or inactive are those of the source. The rule behind the calls is not given here.

`COCCCCCCCCCN1C[C@H](O)[C@@H](O)[C@H](O)[C@H]1CO.Cl`: the result with Influenza A virus [1], with Influenza A virus [6], in the assay on dengue virus type 2 [7], in the assay with dengue virus type 2 [12], in the assay with dengue virus type 2 [13] and in the assay with dengue virus type 2 [14] was Active. Besides, the result with dengue virus type 2 [15], in the assay with dengue virus type 2 [17], with dengue virus type 2 [18], with dengue virus type 2 [20], with dengue virus type 2 [21] and in the assay with dengue virus type 2 [22] was Active. Further, the survival at 750 mg/kg in the assay with Influenza A virus [2] amounted to 30%; with dengue virus type 2 [9] it was 89%; in the assay on Influenza A virus [19], 100%. In addition, the inhibition entry in the assay on Mus musculus [3], in the assay with Mus musculus [4], with Cynomolgus monkey, with Mus musculus [8] and with Mus musculus [10] was “Active” each time. Further, in the assay with Influenza A virus [5], the Time amounted to 10 days. Moreover, the survival at 500 mg/kg in the assay with Influenza A virus [11] was 30%; in the assay with Influenza A virus [16], 100%; in the assay on Influenza A virus [23], 100%.
